For series [1], the target named is T1, LSD-1 enzyme (LSD1/KDM1A) (Homo sapiens, UniProt O60341).
T1 construct: purchased ENZO BML-SE544-0050
Briefly: LANCE LSD1/KDM1A histone demethylase biochemical assay. The following applies: 1 nM LSD-1 enzyme, 1 hour preincubation at 25° C., Biotin-labeled Histone H3 peptide substrate. As for the experimental part:
LANCE LSD1/KDM1A demethylase assay-10 μL of 1 nM LSD-1 enzyme (ENZO BML-SE544-0050) in the assay buffer (50 mM Tris, pH 7.5, 0.01% Tween-20, 25 mM NaCl, 5 mM DTT) were preincubated for 1 hour at 25° C. with 0.8 μL compound/DMSO dotted in black 384 well polystyrene plates. Reactions were started by addition of 10 μL of assay buffer containing 0.4 μM Biotin-labeled Histone H3 peptide substrate: ART-K(Me1)-QTARKSTGGKAPRKQLA-GGK(Biotin) SEQ ID NO:1 (AnaSpec 64355) and incubated for 1 hour at 25° C. Reactions were stopped by addition of 10 μL 1× LANCE Detection Buffer (PerkinElmer CR97-100) supplemented with 1.5 nM Eu-anti-unmodified H3K4 Antibody (PerkinElmer TRF0404), and 225 nM LANCE Ultra Streptavidin (PerkinElmer TRF102) along with 0.9 mM Tranylcypromine-HCl (Millipore 616431). After stopping the reactions plates were incubated for 30 minutes and read on a PHERAstar FS plate reader (BMG Labtech).

Series [2] in a line: Competitive slurry experiment, stability relationship between Forms II-V. The class given is physicochemical. The following applies: competitive slurry of Forms II-V in methanol, 23-25° C., 65-75% humidity, XRPD after 4 h and 20 h. As for the experimental part:
The transformation of Compound 1 di-HCl solid forms was evaluated in competitive slurry experiments in methanol at 23-25° C. and 65-75% humidity. The experiments were performed with a mixture of four polymorphs (Form II through Form V), according to the following procedure.
10.0 mg of Compound 1 di-HCl Form II was added to a saturated solution of Compound 1 di-HCl Form II in methanol (1.0 mL) and stirred to give a thin slurry. A mixture of Form III (10.29 mg), Form IV (10.39 mg), and Form V (10.95 mg) were added to the slurry. The mixture was stirred for 4 h at 25° C.
A portion of the mixture was filtered after 4 h. The filtered solids were analyzed by XRPD and determined to be Form II in addition to a minor amount of amorphous solid.
A portion of the mixture was filtered after 20 h. The filtered solids were analyzed by XRPD and determined to be Form II in addition to a minor amount of amorphous solid. The sample was then dried under vacuum at 46-48° C. for 36 h. The dried solids were analyzed by XRPD and determined to be Form II.

From patent publication US10968200B2, “Salts of an LSD1 inhibitor and processes for preparing the same” (priority 2018, dated 2021) come the findings set out here.

Where a name gives a salt, the structure may show the parent alone. Bounds are passed on as bounds.

`N#CCC1(N2CCC(N[C@@H]3C[C@H]3c3ccccc3)CC2)CN(S(N)(=O)=O)C1` [Compound 1, 3-(cyanomethyl)-3-(4-{[(1R,2S)-2-phenylcyclopropyl]amino}piperidin-1-yl)azetidine-1-sulfonamide]: the IC50 in series [1] was ≤ 100 nM.

Take `N#CCC1(N2CCC(N[C@@H]3C[C@H]3c3ccccc3)CC2)CN(S(N)(=O)=O)C1` [Form II, 3-(cyanomethyl)-3-(4-{[(1R,2S)-2-phenylcyclopropyl]amino}piperidin-1-yl)azetidine-1-sulfonamide dihydrochloride]: in series [2], the “relative stability of solid forms” value is given as “most stable form”.

The IC50 is the point on the concentration scale where inhibition reaches its midpoint. A lower IC50 goes with greater potency.
